Experimental data reported in patent US9567342B2, “Certain protein kinase inhibitors” (SHANGHAI FOCHON PHARMACEUTICAL CO., LTD., priority 2012, dated 2017).
pIC50: −log10 of the molar value. Each block holds one molecule with its values, some of them ahead of it.

What was measured:
SU-DHL-1 cells = test: Inhibition activity of cell proliferation (CCK-8 assay); type: cell-based; conditions: Homo sapiens, 72 h exposure
NCI-H2228 cells = test: In vivo antitumor activity, NCI-H2228 cells implanted sc in nude mice; conditions: QD, oral, NCI-H2228 xenograft
Procedure: Male nude mice (6-week old) were housed in a specific pathogen-free room with a 12 h light/dark schedule at 20-25° C. and were fed an autoclaved chow diet and water ad libitum.
NCI-H2228 cells at a density of […] in 200 μL were first implanted sc into the right flank of each nude mice and then allowed to grow to above 230 mm^3, the mice were randomly assigned into control and treatment groups (n=6 per group for compound treated group, n=12 per group for vehicle group). Vehicle control group were given vehicle alone, and treatment groups were received Compound 4, LDK378 or Crizotinib as indicated doses via oral administration once daily for 21 days. The mice tumor volumes in each group were measured twice per week.

SMILES: C[C@@H](Oc1cc(-c2cnn(C3CCNCC3)c2)cnc1N)c1c(Cl)ccc(F)c1Cl [Crizotinib]
- pIC50 (SU-DHL-1 cells): 6.81 to 7.12
- Mean relative tumor volume (RTV) ± S.E. (NCI-H2228 cells; D0, 50 mg/kg): 100.00
- Mean relative tumor volume (RTV) ± S.E. (NCI-H2228 cells; D4, 50 mg/kg): 67.71±
- Mean relative tumor volume (RTV) ± S.E. (NCI-H2228 cells; D7, 50 mg/kg): 54.10
- Mean relative tumor volume (RTV) ± S.E. (NCI-H2228 cells; D11, 50 mg/kg): 44.71
- Mean relative tumor volume (RTV) ± S.E. (NCI-H2228 cells; D14, 50 mg/kg): 42.69
- Mean relative tumor volume (RTV) ± S.E. (NCI-H2228 cells; D18, 50 mg/kg): 41.44
- Mean relative tumor volume (RTV) ± S.E. (NCI-H2228 cells; D21, 50 mg/kg): 43.69

SMILES: Cc1cc(Nc2ncc(Cl)c(Nc3ccccc3S(=O)(=O)C(C)C)n2)c(OC(C)C)cc1C1CCNCC1 [LDK378]
- pIC50 (SU-DHL-1 cells): 6.47 to 7.02
- Mean relative tumor volume (RTV) ± S.E. (NCI-H2228 cells; D0, 20 mg/kg): 100.00
- Mean relative tumor volume (RTV) ± S.E. (NCI-H2228 cells; D4, 20 mg/kg): 71.66
- Mean relative tumor volume (RTV) ± S.E. (NCI-H2228 cells; D7, 20 mg/kg): 56.79
- Mean relative tumor volume (RTV) ± S.E. (NCI-H2228 cells; D11, 20 mg/kg): 49.09
- Mean relative tumor volume (RTV) ± S.E. (NCI-H2228 cells; D14, 20 mg/kg): 48.58
- Mean relative tumor volume (RTV) ± S.E. (NCI-H2228 cells; D18, 20 mg/kg): 35.67
- Mean relative tumor volume (RTV) ± S.E. (NCI-H2228 cells; D21, 20 mg/kg): 31.44

SMILES: Cc1cc(Nc2ncc(Cl)c(Nc3ccccc3S(=O)(=O)C(C)C)n2)c2c(c1C1CCN(CC(=O)O)CC1)C[C@@H](C)O2 [Example 20, (R)-2-(4-(7-((5-chloro-4-((2-(isopropylsulfonyl)phenyl)amino)pyrimidin-2-yl)amino)-2,5-dimethyl-2,3-dihydrobenzofuran-4-yl)piperidin-1-yl)acetic acid]
- pIC50 (SU-DHL-1 cells): 7.21

SMILES: Cc1cc(Nc2ncc(Cl)c(Nc3ccccc3S(=O)(=O)C(C)C)n2)c2c(c1C1CCNCC1)C[C@@H](C)O2 [Example 9, (R)-5-chloro-N-2-(2,5-dimethyl-4-(piperidin-4-yl)-2,3-dihydrobenzofuran-7-yl)-N-4-(2-(isopropylsulfonyl)phenyl)pyrimidine-2,4-diamine]
- pIC50 (SU-DHL-1 cells): 7.01

The next molecules have a higher pIC50 (SU-DHL-1 cells) than those just listed; values first:

- pIC50 (SU-DHL-1 cells): 7.96
SMILES: Cc1cc(Nc2nc(Nc3ccccc3S(=O)(=O)C(C)C)c3c(C)n[nH]c3n2)c2c(c1C1CCN(C)CC1)C[C@@H](C)O2 [Example 4]
- Mean relative tumor volume (RTV) ± S.E. (NCI-H2228 cells; D0, 10 mg/kg): 100.00
- Mean relative tumor volume (RTV) ± S.E. (NCI-H2228 cells; D4, 10 mg/kg): 52.92
- Mean relative tumor volume (RTV) ± S.E. (NCI-H2228 cells; D7, 10 mg/kg): 36.55
- Mean relative tumor volume (RTV) ± S.E. (NCI-H2228 cells; D11, 10 mg/kg): 29.20
- Mean relative tumor volume (RTV) ± S.E. (NCI-H2228 cells; D14, 10 mg/kg): 18.82
- Mean relative tumor volume (RTV) ± S.E. (NCI-H2228 cells; D18, 10 mg/kg): 9.48
- Mean relative tumor volume (RTV) ± S.E. (NCI-H2228 cells; D21, 10 mg/kg): 5.28

- pIC50 (SU-DHL-1 cells): 7.58
SMILES: CO[C@H](C)C(=O)N1CCC(c2c(C)cc(Nc3ncc(Cl)c(Nc4ccccc4S(=O)(=O)C(C)C)n3)c3c2C[C@@H](C)O3)CC1 [Example 56, (R)-1-(4-((R)-7-((5-chloro-4-((2-(isopropylsulfonyl)phenyl)amino)pyrimidin-2-yl)amino)-2,5-dimethyl-2,3-dihydrobenzofuran-4-yl)piperidin-1-yl)-2-methoxypropan-1-one]

- pIC50 (SU-DHL-1 cells): 7.36
SMILES: CCOC(=O)CN1CCC(c2c(C)cc(Nc3ncc(Cl)c(Nc4ccccc4S(=O)(=O)C(C)C)n3)c3c2C[C@H](C)O3)CC1 [Example 41, (S)-ethyl 2-(4-(7-((5-chloro-4-((2-(isopropylsulfonyl)phenyl)amino)pyrimidin-2-yl)amino)-2,5-dimethyl-2,3-dihydrobenzofuran-4-yl)piperidin-1-yl)acetate]

- pIC50 (SU-DHL-1 cells): 8.31
SMILES: Cc1cc(Nc2ncc(Cl)c(Nc3ccccc3S(=O)(=O)C(C)C)n2)c2c(c1C1CCN(CC(=O)O)CC1)C[C@H](C)O2 [Example 19, (S)-2-(4-(7-((5-chloro-4-((2-(isopropylsulfonyl)phenyl)amino)pyrimidin-2-yl)amino)-2,5-dimethyl-2,3-dihydrobenzofuran-4-yl)piperidin-1-yl)acetic acid]
